Tested on: endogenous reactive oxygen species (ROS), primarily hydrogen peroxide (H2O2), in normal human epidermal keratinocyte (NHEK) cell cultures
Test: Endogenous reactive oxygen species (ROS) level in NHEK cell cultures, dichlorodihydrofluorescein diacetate fluorescence
Assay type: cell-based
Conditions: overnight incubation, fluorescence at 5.5 hour time point, NHEK cells
Experimental: Specifically, NHEK cells were cultured and plated, followed by treatment with Resveratrol Ferulates at concentrations of about 10 μM, 25 μM, and 50 μM. As comparative examples, some NHEK cells were separated treated with resveratrol at a concentration of about 25 μM. Further as control examples, some NHEK cells were maintained without treatment with either Resveratrol Ferulates or resveratrol. Four samples of NHEK cells were provided for each treatment. After overnight incubation of the cell cultures, dichlorodihydrofluorescein diacetate was added thereinto. Dichlorodihydrofluorescein diacetate is a useful fluorogenic reagent for detecting reactive oxygen species in cells. Upon oxidation by the reactive oxygen species, dichlorodihydrofluorescein diacetate becomes the highly green fluorescent dichlorofluorescein, which can be readily detected by fluorescene spectroscopy. For example, a Gemini EM microplate spectrofluorometer commercially available from Molecular Devices at Sunnyvale, Calif. was employed to measure the fluorescence (Ex450, Em525) of the cell cultures at the 5.5 hour time point, which was used as an indication of the amount of reactive oxygen species (primarily H2O2) in the cells.

Structure (SMILES): Oc1ccc(C=Cc2cc(O)cc(O)c2)cc1 [resveratrol, 3,5,4′-trihydroxystilbene]
- average reduction in ROS level in comparison with the control samples (10 μM): about 62.0%
- average reduction in ROS level in comparison with the control samples (25 μM): about 69.5%

From US9220669B2, “Resveratrol ferulate compounds, compositions containing the compounds, and methods of using the same” (ELC Management LLC, priority 2007, dated 2015)
